Assay results from US10399966B2, “Compounds for treatment of trypanosomes and neurological pathogens and uses thereof” (The University of North Carolina at Chapel Hill, priority 2016, dated 2019).
Read-outs that look alike come from different tables or passages of the source. Marks after values point to notes of the source that are not given here.

Columns and labels:
[1] = system: human lymphocytes CRL-8155
Experimental: (§2) The selectivity of each compound for the parasite over each of the two cell lines was calculated.

human hepatocytes HepG2 = test: Cytotoxicity against HepG2 cells; conditions: for EC50: Homo sapiens, HepG2, read-out: HepG2 EC50
T. b. brucei TREU667 = test: Mouse efficacy model of chronic T. brucei infection; assay type: in vivo; conditions: single intraperitoneal dose 10 mg/kg on day 21
Experimental: For chronic efficacy, experiments were done in compliance with the University of Washington IACUC approved protocol. According to published procedures, groups of 5 mice were infected with 1×10^4 T. b. brucei (strain TREU667) at day 0 to establish a chronic infection. Treatment began on day 21 post-infection, and mice received 50 mg/kg test compound orally b.i.d. for 10 d (total of 20 doses) in a 200 μL volume of a vehicle composed of Phosal 53 MCT (60%), PEG400 (30%) and EtOH (10%). A control group received vehicle with no compound and another control group received a single intraperitoneal dose of diminazene aceturate at 10 mg/kg in water on day 21. […] Post dosing, parasitemia was monitored via microscopic examination of tail blood slides until 180 days post-infection. Mice were removed from the experiment once parasites were detected in the blood.
In a model of the chronic phase of HAT, compound 1 was administered to five mice infected with T. b. brucei TREU667 at 50 mg/kg/po b.i.d.×10 days, beginning 21 days post-infection. […] Efficacy PK blood samples were collected from three of the five mice prior to dose 15, and at 1 h and 6 h post-dose. […] Compound 1 attained 5/5 cures as determined by the absence of detectable parasitemia in any of the treated mice through 180 days post-infection (FIG. 2). […]

T. b. brucei = test: In vitro antitrypanosomal activity against T. brucei (growth inhibition); assay type: cell-based, Trypanosoma brucei; conditions: Trypanosoma brucei; for EC90: read-out: T. brucei EC90
In short: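 Dose-response EC50 against T. brucei parasites with 0.4% DMSO final, 48 h at 37 °C; parasite density quantified by ATP luminescence (CellTiter-Glo).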

[2] = Mouse oral pharmacokinetics; assay type: in vivo; conditions: for Tmax: read-out: Mouse oral PK Tmax (converted)
Experimental: […] Experiments were performed with groups of three mice per compound. Plasma was separated and extracted with acetonitrile for measurements of compound concentrations by liquid chromatography/tandem mass spectrometry.

[3] = system: human lymphocytes CRL-8155; test: Cytotoxicity against CRL-8155 cells; conditions: human lymphoblasts; for EC50: read-out: CRL-8155 EC50, concentration required to inhibit growth by 50%
Experimental: as §2

in vitro = conditions: human
Experimental: as §2

[4] = Metabolic stability in mouse liver microsomes; assay type: in vitro ADME
Experimental: (§1) Metabolic stability was evaluated using liver microsomes derived from mouse and human sources. Microsomal incubations were carried out according to a protocol described previously (Wang et al., Antimicrob. Agents Chemother. 54:2507 (2010)) with modifications. Briefly, substrate stock solutions were prepared in DMSO and DMSO content was kept at 0.5% (v/v) in final incubations. Incubation mixtures ([…]), liver microsomes (0.5 mg/mL) from mouse (pool of 1000, CD-1 male mouse) or human (pool of 50, mixed gender) (XenoTech LLC, Lenexa, Kans.) in a phosphate buffer (100 mM, pH 7.4) containing 3.3 mM MgCl2. After a 5-minute pre-equilibration period at 37° C., reactions (in triplicate) were initiated by adding the NADPH cofactor (1 mM). For NADPH-independent reactions, the cofactor was replaced with water. Aliquots (10 μl) of the reaction mixtures were removed at 0, 15, 30, and 60 minutes and individually mixed with 200 μL of ice-cold acetonitrile containing internal standard. The mixtures were vortex-mixed, and precipitated protein was removed by centrifugation at 2,250×g for 15 min. The supernatant fractions were dried using a 96-well microplate evaporator (Apricot Designs Inc., Covina, Calif.) under N2 at 50° C. and reconstituted with 100 μL 50% methanol containing 0.1% trifluoroacetic acid before UPLC-MS/MS analysis. In vitro half-life (t1/2) was obtained by analyzing the substrate concentration vs. incubation time curve using the one-phase exponential decay model (GraphPad Prism® 5.0, San Diego, Calif.).

[5] = Cytotoxicity against HepG2 cells; conditions: human
[6] = Metabolic stability in human liver microsomes; assay type: in vitro ADME; conditions: for Human microsomes, percentage of compound remaining / half-life at 1.5 μM: Table 12; for Human microsomes, percentage of compound remaining: after 60 min (where t1/2 > 60 min); for half-life at 3 μM / half-life at 1.5 μM: both sexes, human, liver microsomes, pH 7.4; for half-life at 3 μM: Table 5, read-out: Microsome t1/2 (min) Human; for half-life at 1.5 μM: 37° C., NADPH (1 mM), microsomes 0.5 mg/mL, test compounds 1.5 μM, read-out: Human microsomes t1/2
Experimental: as §1

[7] = Distribution between mouse plasma and brain (brain penetration, ip); assay type: in vivo; conditions: for Average [compound] brain / Average [compound] plasma: groups of 3 mice (compound 3: ± SEM of 6 mice); for Kp at 1 h / concentration at 60 min / concentration at 1 h: 5 mg/kg; for Kp at 1 h: read-out: Average brain/plasma ratio
In short: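 Mice (n=3) received a single 5 mg/kg ip dose in 7% Tween 80, 3% ethanol, 5% DMSO, 0.9% saline and were sacrificed 1 h post-dose. Plasma and acetonitrile brain homogenates analysed by LC/MS/MS; brain concentration corrected for 2.5% vasculature volume, assuming 1 g = 1 mL.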

Trypanosoma cruzi = test: Efficacy against T. cruzi in vitro; assay type: cell-based; conditions: Trypanosoma cruzi; for EC90: read-out: T.cruzi EC90
[8] = Table 8, read-out: T. brucei EC50
[9] = Table 11, read-out: T. b. brucei EC50
[10] = Table 12, read-out: T. b. brucei EC50
[11] = Table 9, read-out: T. brucei EC50
[12] = Table 13, mice, single 50 mg/kg oral gavage, vehicle Tween 80 (7%), EtOH (3%), DMSO (5%) in 0.9% NaCl, ± SEM of 3 mice, read-out: Cmax
[13] = mouse, plasma, po, 50 mg/kg, Table 5, n = 3, read-out: Mouse oral PK Average Cmax
[14] = mouse, plasma, po, 50 mg/kg, Table 5
[15] = Table 14, mice, single ip dose 5 mg/kg, one hour post-dose, ± SEM of 3 mice (compound 3: 6 mice)
[16] = Table 10, read-out: T.cruzi EC50

SMILES	EC50 (human hepatocytes HepG2) [nM]	EC50 (T. b. brucei; [8]) [nM]	EC50 (T. b. brucei; [9]) [nM]	EC50 (T. b. brucei; [10]) [nM]	EC50 (T. b. brucei; [11]) [nM]	EC90 (T. b. brucei; Table 9) [nM]	Mouse oral PK Tlast ([2]; Table 5) [min]	Mouse oral PK Average AUC ([2]; Table 5, n = 3)	Cmax [2, 12] [nM]	Cmax [2, 13] [nM]	Tmax [2, 14] [h]	EC50 [3] [nM]	melting point [°C]	Human microsomes, percentage of compound remaining [6] [%]	half-life at 3 μM [6] [min]	half-life at 1.5 μM [6] [h]	Average [compound] brain ([7]; Table 8)	Average [compound] plasma ([7]; Table 8)	EC50 (Trypanosoma cruzi; [16]) [nM]	EC90 (Trypanosoma cruzi; Table 10) [nM]	also measured
CCN(CC)CCCC(C)Nc1c2ccc(Cl)cc2nc2ccc(OC)cc12 (stereo not shown) [quinacrine, reference compound]	10400																				EC90 [1]: 9940 nM; EC90 (human hepatocytes HepG2; human): 18200 nM
N=C(N)c1ccc(/N=N/Nc2ccc(C(=N)N)cc2)cc1 [diminazene aceturate, reference compound]																					parasitemia outcome (in words) (T. b. brucei TREU667): temporary clearance of parasitemia, but subsequently relapsed
O=C(Nc1ccc2sc(-c3ccc(F)c(F)c3)nc2c1)N1CCC(F)C1 (racemic) [Compound 3, 2-(3,4-Difluorophenyl)-5-(3-fluoro-N-pyrrolidylamido)benzothiazole]	> 50000	51.9	51.9	51.9	51.9	91.9	480	3847 ± 466 (n = 3) min * μmol/L	10000 ± 650	10000 ± 1100	1	> 50000	209 to 210	99	> 60	> 1	5.48 ± 0.683^a μM	3.26 ± 0.630^a μM	177	525	EC50 (T. b. brucei; Table 6, read-out: T. brucei EC50): 51.9 nM; EC90 (in vitro): > 50000 nM; Mouse microsomes, percentage of compound remaining ([4]; Table 12, after 60 min (where t1/2 > 60 min)): 52%; half-life at 3 μM ([4]; male, CD-1, mouse, liver microsomes, pH 7.4, Table 5, read-out: Microsome t1/2 (min) Mouse): 60 min; half-life at 1.5 μM ([4]; male, CD-1, mouse, liver microsomes, pH 7.4, Table 12, 37° C., NADPH (1 mM), microsomes 0.5 mg/mL, test compounds 1.5 μM, read-out: Mouse microsomes t1/2): > 1 h; EC90 [5]: > 50000 nM; [compound]Brain [7, 15]: 5.48 ± 0.683^b μM; [compound]Plasma [7, 15]: 3.26 ± 0.630^b μM; Kp at 1 h ([7]; mouse, in vivo, Table 5, mouse brain penetration (60 min), n = 3): 1.52 ± 0.0416; concentration at 60 min ([7]; mouse, in vivo, Table 5 r15, mouse brain penetration (60 min), n = 3): 2780 ± 652 nM; concentration at 60 min ([7]; mouse, in vivo, Table 5 r17 (second line so headed), mouse brain penetration (60 min), n = 3): 4220 ± 974 nM; Kp at 1 h ([7]; mouse, in vivo, Table 8, groups of 3 mice): 2.11 ± 0.669; EC50 (Trypanosoma cruzi; Table 6, read-out: T. cruzi EC50): 91.9 nM
O=C(Nc1ccc2sc(-c3ccc(F)c(F)c3)nc2c1)N1CCCC1 [Compound 2, 2-(3,4-Difluorophenyl)-5-(N-pyrrolidylamido)benzothiazole]	> 50000	91.8	91.8	91.8	91.8	181	480	408 ± 95 (n = 3) min * μmol/L	2010 ± 460	2000 ± 820	1	33900	221 to 223	66	> 60	> 1	4.25 ± 1.20 µM	2.61 ± 1.26 µM	339	483	EC50 (T. b. brucei; Table 7, read-out: T. brucei EC50): 91.8 nM; AUC0 min-∞ ([2]; Table 13, mice, single 50 mg/kg oral gavage, vehicle Tween 80 (7%), EtOH (3%), DMSO (5%) in 0.9% NaCl, ± SEM of 3 mice): 443.3 ± 43.07 µM·min; EC90 ([3]; read-out: CRL-8155 EC90, concentration required to inhibit growth by 90%): > 50000 nM; Microsome t1/2 (min) Mouse ([4]; Table 5): 13.8 min; Mouse microsomes t1/2 ([4]; Table 12, 37° C., NADPH (1 mM), microsomes 0.5 mg/mL, test compounds 1.5 μM): 0.233 h; EC90 (human hepatocytes HepG2; read-out: HepG2 EC90, concentration required to inhibit growth by 90%, human hepatocytes): > 50000 nM; Brain/plasma ratio ([7]; Table 14, mice, single ip dose 5 mg/kg, one hour post-dose): 1.81 ± 0.458; Kp at 1 h ([7]; mouse, brain and plasma, intraperitoneal, Table 5, mouse brain penetration (60 min), n = 3): 1.81 ± 0.793; Kp at 1 h ([7]; mouse, brain and plasma, intraperitoneal, Table 7, groups of 3 mice): 1.81 ± 0.793; Kp at 1 h ([7]; mouse, brain and plasma, intraperitoneal, Table 8, groups of 3 mice): 1.81 ± 0.793; concentration at 1 h ([7]; mouse, brain, intraperitoneal, Table 7, groups of 3 mice, read-out: Average [compound] brain): 4250 ± 1200 nM; concentration at 1 h ([7]; mouse, plasma, intraperitoneal, Table 7, groups of 3 mice, read-out: Average [compound] plasma): 2610 ± 1260 nM; concentration at 60 min ([7]; plasma, intraperitoneal, Table 5 r15, mouse brain penetration (60 min), n = 3): 2610 ± 1260 nM
